The assay has as its target human P2X3 receptor (Homo sapiens (Human), UniProt P56373). Put plainly: Evaluation of human P2X3 receptor inhibitory activity (Test Example 1-2, FLIPR 384, 384-well, 150 nM ATP). It counts as cell-based. As to conditions: human P2X3 receptor in C6BU-1 cells; Test Example 1-2 (compounds I-301 to I-483); read-out: P2X3 IC50. The method, then: Stably expressing cell line (C6BU-1 cell transfected with human P2X3 receptor gene (GenBank accession number Y07683) was used. The cells were seeded in a 384-well microtiter plate at a concentration of 3000 cells/well and cultured in the medium (7.0% fetal bovine serum, 7.0% horse serum, 1% antibiotic and antifungal in DMEM) for one day at 37° C. under 5% carbon dioxide atmosphere. The medium was replaced with 4 μM Fluo-3-AM solution (20 mM HEPES, […], 5.27 mM KCl, 0.9 mM MgCl2, 1.26 mM CaCl2, 5.6 mM D-glucose, 2.5 mM probenecid, 0.5% BSA, and 0.04% Pluronic F-127, pH 7.5) and incubated at 37° C. under 5% dioxide carbon atmosphere for one hour. The plate was washed with washing buffer (20 mM HEPES, 137 mM NaCl, 5.27 mM KCl, 0.9 mM MgCl2, 1.26 mM CaCl2, 5.6 mM D-glucose, 2.5 mM probenecid, pH7.5), and each well was added with 20 μL of this buffer. The plate was placed in High-Throughput Screening System FLIPR 384 (Molecular Device Co.). Measurement of fluorescence intensity by FLIPR 384 was started, and 20 μL of DMSO solutions containing different concentrations of the test compound as prepared by dilution with dilution buffer (20 mM HEPES, 137 mM NaCl, 5.27 mM KCl, 0.9 mM MgCl2, 1.26 mM CaCl2, 5.6 mM D-glucose, 2.5 mM probenecid, 0.1% Pluronic F-127, pH 7.5) were dispensed to each well through the built-in automatic dispenser. Five minutes after, 150 nM ATP solution (25 μL) prepared by dilution with the dilution buffer was dispensed through the built-in automatic dispenser, and the measurement of fluorescence intensity was continued for 4 min. For each well, the specific maximum fluorescence intensity was calculated as the ratio of the maximum fluorescence intensity after addition of the ATP solution to the fluorescence intensity at the starting of the measurement. The 50% inhibitory concentration (IC50) was calculated under the assumption that the specific maximum fluorescence intensity without test compound is 0% inhibition and that the specific maximum fluorescence intensity when the dilution buffer was added in place of ATP solution is 100% inhibition, to evaluate the inhibitory activity of the test compound. The specific maximum fluorescence intensity and IC50 were calculated using Spotfire (Science & Technology Systems, Inc.)
The data of the compounds I-001 to I-300 are the results by the method mentioned in Test Example 1-1, and the data of the compounds I-301 to I-483 are the results by the method mentioned in Test Example 1-2.

Chain of human P2X3 receptor (P56373 whole entry): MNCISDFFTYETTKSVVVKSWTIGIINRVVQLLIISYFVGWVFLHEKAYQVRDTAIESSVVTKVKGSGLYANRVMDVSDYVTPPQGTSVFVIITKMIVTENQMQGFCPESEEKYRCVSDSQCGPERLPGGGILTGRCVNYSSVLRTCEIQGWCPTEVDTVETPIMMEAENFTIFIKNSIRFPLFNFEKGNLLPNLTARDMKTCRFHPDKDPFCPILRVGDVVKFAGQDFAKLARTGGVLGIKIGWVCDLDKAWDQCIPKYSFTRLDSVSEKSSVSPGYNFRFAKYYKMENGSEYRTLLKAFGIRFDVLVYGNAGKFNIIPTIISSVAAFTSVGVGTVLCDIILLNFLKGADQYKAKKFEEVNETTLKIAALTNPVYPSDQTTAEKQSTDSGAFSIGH

Regarding `CCn1c(=O)cc(Nc2ccc3nc(C(F)F)sc3c2)n(Cc2ccc(Cl)cc2)c1=O` [Compound I-326], the IC50 is 0.328 µM. In the case of `Cc1nnc(-c2c[nH]/c(=N\c3ccc(Oc4cccc(C#N)n4)cc3)n(Cc3ccc(Cl)cc3)c2=O)o1` [Compound I-327] it was 0.034 µM. As for `Cc1nnc(-c2c[nH]/c(=N\c3ccc(Oc4cccc(C(=O)O)n4)cc3)n(Cc3ccc(Cl)cc3)c2=O)o1` [Compound I-328], the IC50 stood at 0.011 µM. In the case of `Cc1nnc(-c2c[nH]/c(=N\c3ccc(Oc4cccc(C(N)=O)n4)cc3)n(Cc3ccc(Cl)cc3)c2=O)o1` [Compound I-329] it was 0.02 µM; in that of `CCC(=O)Nc1c[nH]/c(=N\c2ccc(Oc3cccc(CCC(=O)OC)c3)cc2)n(Cc2ccc(Cl)cc2)c1=O` [Compound I-330], 0.366 µM. In the case of `CCC(=O)Nc1c[nH]/c(=N\c2ccc(Oc3cccc(CC(=O)OC)c3)cc2)n(Cc2ccc(Cl)cc2)c1=O` [Compound I-331] it was 0.309 µM. As to `N#Cc1cccc(Oc2ccc(/N=c3\[nH]cc(N4CCCC4=O)c(=O)n3Cc3ccc(Cl)cc3)cc2)n1` [Compound I-332], the IC50 amounted to 0.179 µM. As to `O=C1CCCN1c1c[nH]/c(=N\c2ccc(Oc3cccc(F)n3)cc2)n(Cc2ccc(Cl)cc2)c1=O` [Compound I-333], the IC50 came to 0.149 µM. Consider `CSc1cccc(Oc2ccc(/N=c3\[nH]cc(N4CCCC4=O)c(=O)n3Cc3ccc(Cl)cc3)cc2)n1` [Compound I-334], for which the IC50 turned out to be 0.838 µM. Consider `NC(=O)c1cccc(Oc2ccc(/N=c3\[nH]cc(N4CCCC4=O)c(=O)n3Cc3ccc(Cl)cc3)cc2)n1` [Compound I-335], for which the IC50 is 0.227 µM. The figure for `O=C(O)c1cccc(Oc2ccc(/N=c3\[nH]cc(N4CCCC4=O)c(=O)n3Cc3ccc(Cl)cc3)cc2)n1` [Compound I-336] is 0.041 µM; for `CCC(=O)Nc1c[nH]/c(=N\c2ccc(Oc3cccc(CCC(=O)O)c3)cc2)n(Cc2ccc(Cl)cc2)c1=O` [Compound I-337] it is 0.076 µM. As to `COC(=O)[C@H](C)[C@H](C)n1c(=O)cc(Nc2ccc(Oc3ccc(F)nc3)c(C)n2)n(Cc2ccc(Cl)cc2)c1=O` [Compound I-338], the IC50 amounted to 0.009 µM. In the case of `Cc1nc(Nc2cc(=O)n(C(C)C)c(=O)n2Cc2ccc(Cl)cc2)ccc1Oc1cccc(C#N)c1` [Compound I-340] it was 0.008 µM; in that of `Cc1nc(Nc2cc(=O)n(C(C)C)c(=O)n2Cc2ccc(Cl)cc2)ccc1Oc1cccc(C(=O)O)n1` [Compound I-341], 0.01 µM; in that of `COCCn1c(=O)cc(Nc2ccc(Oc3ccc(F)nc3)cc2)n(Cc2ccc(Cl)cc2)c1=O` [Compound I-342], 0.01 µM. Consider `CC(=O)OCC(=O)NNC(=O)c1c[nH]/c(=N\c2ccc(Oc3ccon3)cc2)n(Cc2ccc(Cl)cc2)c1=O` [Compound I-343], for which the IC50 was 0.084 µM. In the case of `C#CCNC(=O)c1c[nH]/c(=N\c2ccc(Oc3ccon3)cc2)n(Cc2ccc(Cl)cc2)c1=O` [Compound I-344] it was 0.004 µM; in that of `Cc1noc(-c2c[nH]/c(=N\c3ccc(Oc4ccon4)cc3)n(Cc3ccc(Cl)cc3)c2=O)n1` [Compound I-345], 0.038 µM.

Consider `CN(C)C(=O)c1c[nH]/c(=N\c2ccc(Oc3ccon3)cc2)n(Cc2ccc(Cl)cc2)c1=O` [Compound I-346], for which the IC50 amounted to 0.346 µM. On to `CC(=O)NNC(=O)c1c[nH]/c(=N\c2ccc(Oc3ccon3)cc2)n(Cc2ccc(Cl)cc2)c1=O` [Compound I-347], for which the IC50 is 0.152 µM. In the case of `CC(=O)OCc1nnc(-c2c[nH]/c(=N\c3ccc(Oc4ccon4)cc3)n(Cc3ccc(Cl)cc3)c2=O)o1` [Compound I-348] it was 0.076 µM; in that of `Cc1nnc(-c2c[nH]/c(=N\c3ccc(Oc4ccon4)cc3)n(Cc3ccc(Cl)cc3)c2=O)o1` [Compound I-349], 0.073 µM.

Regarding `COc1cn(Cc2ccc(Cl)cc2)c(Nc2ccc(Oc3cccc(C#N)n3)cc2)nc1=O` [Compound I-350], the IC50 was 0.405 µM. In the case of `COc1cn(Cc2ccc(Cl)cc2)c(Nc2ccc(Oc3cccc(F)n3)cc2)nc1=O` [Compound I-351, 1-(4-chlorobenzyl)-2-[4-(6-fluoro-2-pyridyloxy)phenylamino]-5-methoxypyrimidin-4(1H)-one], the IC50 was 0.098 µM. As to `CC(c1ccc(F)cc1)n1cc(C(=O)NC2CCOCC2)c(=O)nc1Nc1ccc(Oc2cccc(F)n2)cc1` (stereo not drawn) [Compound I-352], the IC50 was determined as 0.369 µM. Take `CC(C)c1c[nH]/c(=N\c2ccc(Oc3cccc(C(=O)O)n3)cc2)n(Cc2ccc(Cl)cc2)c1=O` [Compound I-353]: the IC50 worked out at 0.006 µM. Regarding `CCC(=O)Nc1c[nH]/c(=N\c2ccc(Oc3cccc(CC(=O)O)c3)cc2)n(Cc2ccc(Cl)cc2)c1=O` [Compound I-355], the IC50 is 0.053 µM. On to `O=C1CCCN1C1=CN[C@@H](Nc2ccc(Oc3ccon3)cc2)N(Cc2ccc(Cl)cc2)C1=O` [Compound I-356], for which the IC50 is 0.212 µM.

Take `Cc1ccccc1Cn1cc(C(=O)NC2CCOCC2)c(=O)nc1Nc1ccc(Oc2cccc(F)n2)cc1` [Compound I-357]: the half-maximal inhibitory concentration (IC50) was 0.781 µM. In the case of `CC(c1ccc(Cl)cc1)n1cc(C(=O)NC2CCOCC2)c(=O)nc1Nc1ccc(Oc2cccc(F)n2)cc1` (stereo not drawn) [Compound I-358] it was 0.023 µM; in that of `O=C(NC1CCOCC1)c1cn(Cc2ccc(Cl)cc2)c(Nc2ccc3nc(C(F)F)sc3c2)nc1=O` [Compound I-359], 0.057 µM; in that of `COC(=O)CCCn1c(=O)cc(Nc2ccc(Oc3ccc(F)cn3)c(C)n2)n(Cc2ccc(Cl)cc2)c1=O` [Compound I-360], 0.006 µM. On to `Cc1nc(Nc2cc(=O)n(CCCC(=O)O)c(=O)n2Cc2ccc(Cl)cc2)ccc1Oc1ccc(F)cn1` [Compound I-361], for which the half-maximal inhibitory concentration (IC50) worked out at 0.032 µM. In the case of `COC(=O)[C@@H](C)Cn1c(=O)cc(Nc2ccc(Oc3ccc(F)cn3)c(C)n2)n(Cc2ccc(Cl)cc2)c1=O` [Compound I-362], the IC50 was 0.007 µM. The figure for `Cc1nc(Nc2cc(=O)n(C[C@H](C)C(=O)O)c(=O)n2Cc2ccc(Cl)cc2)ccc1Oc1ccc(F)cn1` [Compound I-363] is 0.008 µM; for `COC(=O)C(C)(C)Cn1c(=O)cc(Nc2ccc(Oc3ccc(F)cn3)c(C)n2)n(Cc2ccc(Cl)cc2)c1=O` [Compound I-364] it is 0.004 µM; for `Cc1nc(Nc2cc(=O)n(CC(C)(C)C(=O)O)c(=O)n2Cc2ccc(Cl)cc2)ccc1Oc1ccc(F)cn1` [Compound I-365] it is 0.005 µM.

On to `COC(=O)c1ccc(Oc2ccc(/N=c3\[nH]cc(C(C)C)c(=O)n3Cc3ccc(Cl)cc3)cc2)nc1` [Compound I-366], for which the IC50 is 0.091 µM.

For `COC(=O)c1cncc(Oc2ccc(/N=c3\[nH]cc(C(C)C)c(=O)n3Cc3ccc(Cl)cc3)cc2)c1` [Compound I-367], the IC50 amounted to 0.471 µM.

Take `O=C(NCc1ccco1)c1cn(Cc2ccc(Cl)cc2)c(Nc2ccc(Oc3cccc(F)n3)cc2)nc1=O` [Compound I-369]: the IC50 was determined as 0.12 µM. On to `CC(=O)NCCNC(=O)c1cn(Cc2ccc(Cl)cc2)c(Nc2ccc(Oc3cccc(F)n3)cc2)nc1=O` [Compound I-370], for which the half-inhibitory concentration (IC50) amounted to 0.384 µM. In the case of `Cc1cc(NC(=O)c2cn(Cc3ccc(Cl)cc3)c(Nc3ccc(Oc4cccc(F)n4)cc3)nc2=O)no1` [Compound I-371] it was 0.08 µM; in that of `O=C(Nc1ccon1)c1cn(Cc2ccc(Cl)cc2)c(Nc2ccc(Oc3cccc(F)n3)cc2)nc1=O` [Compound I-372], 0.051 µM. In the case of `COCCCNC(=O)c1cn(Cc2ccc(Cl)cc2)c(Nc2ccc(Oc3cccc(F)n3)cc2)nc1=O` [Compound I-373] it was 0.136 µM; in that of `CC(C)CNC(=O)c1cn(Cc2ccc(Cl)cc2)c(Nc2ccc(Oc3cccc(F)n3)cc2)nc1=O` [Compound I-374], 0.046 µM. The figure for `NC(=O)[C@H](CO)NC(=O)c1cn(Cc2ccc(Cl)cc2)c(Nc2ccc(Oc3cccc(F)n3)cc2)nc1=O` [Compound I-375] is 0.004 µM; for `O=C(NC1CCCC1)c1cn(Cc2ccc(Cl)cc2)c(Nc2ccc(Oc3cccc(F)n3)cc2)nc1=O` [Compound I-376] it is 0.04 µM. For `Cc1noc(C)c1NC(=O)c1cn(Cc2ccc(Cl)cc2)c(Nc2ccc(Oc3cccc(F)n3)cc2)nc1=O` [Compound I-377], the half-maximal inhibitory concentration (IC50) stood at 0.037 µM.

As to `Cn1ccc(NC(=O)c2cn(Cc3ccc(Cl)cc3)c(Nc3ccc(Oc4cccc(F)n4)cc3)nc2=O)n1` [Compound I-378], the IC50 was determined as 0.02 µM. In the case of `O=C(NCC1COCCO1)c1cn(Cc2ccc(Cl)cc2)c(Nc2ccc(Oc3cccc(F)n3)cc2)nc1=O` (stereo not drawn) [Compound I-379] it was 0.096 µM.

By IC50 is commonly meant the concentration needed to halve the response being measured.
